In US10059721B2, “Substituted thieno[3,2-b]pyrazines for inhibiting cancer cell proliferation and inducing cancer cell apoptosis” (DONGGUK UNIVERSITY INDUSTRY-ACADEMIC COOPERATION FOUNDATION, priority 2014, dated 2018):

Experiments:
Format in all cases: cell-based
HUVEC = experiment: Cell growth inhibition experiment (SRB), HUVEC; details: Homo sapiens, incubated for 96 hours, read-out: IC50 (μM) of cancer cell lines HUVEC
Experimental: (§1) The 4-(aryl)-N-(2-alkoxythieno[3,2-b]pyrazin-3-yl)-piperazin-1-carboxamide derivative compounds synthesized according to Examples 1 to 27 of the present invention were treated with various human tissue-derived cancer cell lines cultured according to Experimental Example 1, and thus the inhibitory effect of the growth of human cancer cells was confirmed. The cell growth inhibition experiment was conducted using sulforhodamine B (SRB) technique (Skehan et al., J. National Cancer Institute, 1990, 82: 1107-1112). Specifically, each cell line was seeded in a 96-well plate at a density of 2 to 3×10^3 cells/well, cultured overnight, and then treated with the 4-(aryl)-N-(2-alkoxythieno[3,2-b]pyrazin-3-yl)-piperazin-1-carboxamide derivative compounds of the present invention. The experiment was repeated 3 times for each compound. Cells treated with each compound were additionally incubated for 96 hours, fixed with 10% trichloroacetic acid (TCA), and then left at 4° C. for 1 hour. The resultant was washed 3 times with distilled water. Thereafter, each cell was treated with 0.4% sulforhodamine B dissolved in 1% acetic acid, stained for 30 minutes, and then washed 4 times with 1% acetic acid. The resultant was dried in the air. After shaking the resultant in Tris solution (10 mM) for 5 minutes, the absorbance was measured at 530 nm using a Benchmark Plus Microplate reader (Bio-Rad Laboratories, Hercules, Calif.).
(§2) In order to convert the OD530 value to the number of viable cells per each well, the measured OD530 value was compared to the standard OD530-vs.-cell number curve of each cell line. The percent survival was calculated using the following formula: % survival=Nlive cells(test)/Nlive cells(control)×100
(§3) IC50 values were calculated by nonlinear regression analysis.

A549 = experiment: Cell growth inhibition experiment (SRB), A549; details: Homo sapiens, incubated for 96 hours, read-out: IC50 (μM) of cancer cell lines A549
Experimental: as §1, §2, §3

[1] = test system: MDA-MB-231 (breast cancer) cell line; experiment: Cell growth inhibition experiment (SRB), MDA-MB-231; details: Homo sapiens, incubated for 96 hours, read-out: IC50 (μM) of cancer cell lines MDA-MB-231
Experimental: (§4) The cell lines below were used in order to confirm the efficacy of the compounds synthesized in Examples 1 to 27. Human PANC-1 (pancreatic cancer) and MDA-MB-231 (breast cancer) cell lines were obtained from American Type Culture Collection (ATCC; Manassas, Va.); and HN31 (head and neck cancer) and UMRC2 (kidney cancer) cell lines were secured from the United States National Institutes of Health (Bethesda, Md.). The MDA-MB-231, UMRC2, HN31, and PANC-1 cell lines were cultured in Dulbecco modified Eagle medium (DMEM) containing FBS (10%), HEPES (10 mM), penicillin (100 U/mL), and streptomycin (100 μg/mL). All cell lines were cultured in an incubator (37° C., 5% CO2).
as §1, §2, §3

SK-OV-3 = experiment: Cell growth inhibition experiment (SRB), SK-OV-3; details: Homo sapiens, incubated for 96 hours, read-out: IC50 (μM) of cancer cell lines SK-OV-3
Experimental: as §1, §2, §3

[2] = test system: UMRC2 (kidney cancer) cell line; experiment: Cell growth inhibition experiment (SRB), UMRC2; details: Homo sapiens, incubated for 96 hours, read-out: IC50 (μM) of cancer cell lines UMRC2
Experimental: as §4, §1, §2, §3

[3] = test system: PANC-1 (pancreatic cancer) cell line; experiment: Cell growth inhibition experiment (SRB), PANC-1; details: Homo sapiens, incubated for 96 hours, read-out: IC50 (μM) of cancer cell lines PANC-1
Experimental: as §4, §1, §2, §3

HT29 = experiment: Cell growth inhibition experiment (SRB), HT29; details: Homo sapiens, HT-29, incubated for 96 hours, read-out: IC50 (μM) of cancer cell lines HT29
Experimental: as §1, §2, §3

[4] = test system: HN31 (head and neck cancer) cell line; experiment: Cell growth inhibition experiment (SRB), HN31; details: Homo sapiens, incubated for 96 hours, read-out: IC50 (μM) of cancer cell lines HN31
Experimental: as §4, §1, §2, §3

HEK293 = experiment: Cell growth inhibition experiment (SRB), HEK293; details: Homo sapiens, incubated for 96 hours, read-out: IC50 (μM) of cancer cell lines HEK293
Experimental: as §1, §2, §3

Row | SMILES | IC50 (HUVEC) [µM] | IC50 (A549) [µM] | IC50 [1] [µM] | IC50 (SK-OV-3) [µM] | IC50 [2] [µM] | IC50 [3] [µM] | IC50 (HT29) [µM] | IC50 [4] [µM] | IC50 (HEK293) [µM]
1 | CCOc1nc2ccsc2nc1NC(=O)N1CCN(c2cc(C)cc(C)c2)CC1 [Example 14, 4-(3,5-dimethylphenyl)-N-(2-ethoxythieno[3,2-b]pyrazin-3-yl)piperazin-1-carboxamide] | < 2.5 | < 2.5 | 0.34 | < 2.5 | 0.57 | < 2.5 | < 2.5 | 0.65 | < 2.5
2 | CC(C)Oc1nc2ccsc2nc1NC(=O)N1CCN(c2cc(F)cc(F)c2)CC1 [Example 18, 4-(3,5-difluorophenyl)-N-(2-isopropoxythieno[3,2-b]pyrazin-3-yl)piperazin-1-carboxamide] | < 2.5 | < 2.5 | < 2.5 | < 2.5 | < 2.5 | < 2.5 | < 2.5 | < 2.5 | < 2.5
3 | Cc1cc(C)cc(N2CCN(C(=O)Nc3nc4sccc4nc3OC(C)C)CC2)c1 [Example 17, 4-(3,5-dimethylphenyl)-N-(2-isopropoxythieno[3,2-b]pyrazin-3-yl)piperazin-1-carboxamide] | < 2.5 | < 2.5 | < 2.5 | < 2.5 | < 2.5 | < 2.5 | < 2.5 | < 2.5 | < 2.5
4 | Cc1cc(C)cc(N2CCN(C(=O)Nc3nc4sc(Cl)cc4nc3OC(C)C)CC2)c1 [Example 8, N-(6-chloro-2-isopropoxythieno[3,2-b]pyrazin-3-yl)-4-(3,5-dimethylphenyl)piperazin-1-carboxamide] | < 2.5 | < 2.5 | < 2.5 | < 2.5 | < 2.5 | < 2.5 | < 2.5 | < 2.5 | < 2.5
5 | COc1cc(OC(F)(F)F)cc(N2CCN(C(=O)Nc3nc4sccc4nc3OC)CC2)c1 [Example 25, 4-(3-methoxy-5-(trifluoromethoxy)phenyl)-N-(2-methoxythieno[3,2-b]pyrazin-3-yl)piperazin-1-carboxamide] | 0.13 | 0.22 | 0.15 | 0.63 | < 2.5 | 0.08 | 0.25 | 0.17 | 0.36
6 | CCOc1nc2ccsc2nc1NC(=O)N1CCN(c2cc(F)cc(F)c2)CC1 [Example 15, 4-(3,5-difluorophenyl)-N-(2-ethoxythieno[3,2-b]pyrazin-3-yl)piperazin-1-carboxamide] | < 2.5 | < 2.5 | 0.25 | < 2.5 | 0.25 | 1.12 | < 2.5 | 0.78 | < 2.5
7 | COc1nc2ccsc2nc1NC(=O)N1CCN(c2cc(F)cc(C(F)(F)F)c2)CC1 [Example 27, 4-(3-fluoro-5-(trifluoromethyl)phenyl)-N-(2-methoxythieno[3,2-b]pyrazin-3-yl)piperazin-1-carboxamide] | < 2.5 | < 2.5 | < 2.5 | < 2.5 | < 2.5 | < 2.5 | < 2.5 | < 2.5 | < 2.5
8 | CCOc1nc2cc(Cl)sc2nc1NC(=O)N1CCN(c2cc(C)cc(C)c2)CC1 [Example 5, N-(6-chloro-2-ethoxythieno[3,2-b]pyrazin-3-yl)-4-(3,5-dimethylphenyl)piperazin-1-carboxamide] | < 2.5 | < 2.5 | 1.22 | < 2.5 | 1.72 | 2.32 | < 2.5 | 2.35 | < 2.5
9 | CCOc1nc2cc(Cl)sc2nc1NC(=O)N1CCN(c2cc(OC)cc(OC)c2)CC1 [Example 4, N-(6-chloro-2-ethoxythieno[3,2-b]pyrazin-3-yl)-4-(3,5-dimethoxyphenyl)piperazin-1-carboxamide] | 2.25 | < 2.5 | 0.63 | < 2.5 | 0.54 | 1.28 | < 2.5 | 1.54 | < 2.5
